We go through twelve compounds from US9216962B2 (priority 2011, dated 2015).

Sequence of recombinant human HDAC1 (Q13547 whole entry): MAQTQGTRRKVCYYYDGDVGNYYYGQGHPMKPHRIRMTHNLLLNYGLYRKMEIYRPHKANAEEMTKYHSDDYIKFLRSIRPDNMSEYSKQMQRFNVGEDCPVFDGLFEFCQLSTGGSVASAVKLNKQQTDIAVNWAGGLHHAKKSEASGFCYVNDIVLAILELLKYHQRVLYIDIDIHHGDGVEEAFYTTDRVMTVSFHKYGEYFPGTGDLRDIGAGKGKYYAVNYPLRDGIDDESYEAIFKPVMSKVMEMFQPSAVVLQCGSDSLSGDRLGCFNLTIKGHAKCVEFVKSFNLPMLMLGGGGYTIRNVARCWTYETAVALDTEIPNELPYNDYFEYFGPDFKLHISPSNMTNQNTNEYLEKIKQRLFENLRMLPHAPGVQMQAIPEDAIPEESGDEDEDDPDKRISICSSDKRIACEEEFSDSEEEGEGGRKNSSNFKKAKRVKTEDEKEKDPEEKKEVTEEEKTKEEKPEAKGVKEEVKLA

The first assay addresses recombinant human HDAC1 (Homo sapiens (Human), UniProt Q13547).
Settings: not given
Consider `CC(C)Cc1sc(-c2nccs2)nc1C(=O)NCC(=O)NO` [CFH340], for which the “HDAC1 IC50” value was “NA^a”.

Staying with this assay, now noted: read-out: HDAC1 IC50.
What is called IC50 is the concentration that inhibits the measured activity by half. Take `C=Cc1sc(-c2nccs2)nc1C(=O)NCCCNC(=O)CS` [CFH367-S]: the IC50 was 1830 nM.
Still for that read-out and setting: in the case of `CC(C)Cc1sc(-c2nccs2)nc1C(=O)NCCCCC(=O)Nc1ccccc1N` [CFH494] it was 5910 nM; in that of `CC(C)Cc1sc(-c2nccs2)nc1C(=O)NCCCCCC(=O)Nc1ccccc1N` [CFH508], 984 nM; in that of `CC(C)Cc1sc(-c2nccs2)nc1C(=O)NCCCCCCC(=O)NO` [CFH410], 178 nM.
Take `O=C(CCCCNC(=O)c1nc(-c2ncc(-c3ccccc3)s2)sc1C1CC1)NO` [CFH443-5]: the IC50 was found to be 32 nM.
Still for that read-out and setting: with `Cc1nc(-c2nc(C(=O)NCCCCC(=O)NO)c(CC(C)C)s2)cs1` [CFH397] the figure was 438 nM; with `CC(C)/C=C/c1sc(-c2nccs2)nc1C(=O)NCCCNC(=O)CS` [CFH411], 956 nM; with `Cc1cnc(-c2nc(C(=O)NCCCCC(=O)NO)c(CC(C)C)s2)s1` [CFH397-2], 917 nM.
With `CC(C)Cc1sc(-c2nccs2)nc1C(=O)Nc1cccc(/C=C/C(=O)NO)c1` [CFH429], the IC50 worked out at 657 nM.
Regarding `CC(C)Cc1sc(-c2nccs2)nc1C(=O)NCCCCCCC(=O)Nc1ccccc1N` [CFH522], the IC50 turned out to be 15300 nM.
Same read-out and setting: with `Cc1nc(-c2nc(C(=O)NCCCCC(=O)NO)c(C3CC3)s2)sc1C` [CFH395-M] the figure was 50 nM.
